Measurements as given in ChEMBL document CHEMBL4513101, “Naegleria gruberi Pathogen Box compounds screening” (2021).
Active and inactive are the calls of the source. Rule as the data show it: active = inhibition of 80% or more and inactive = less.

System: Naegleria gruberi
Test: microbe, parasite or virus in culture
Assay type: functional
Conditions: NEG-M, CONC 10 uM
Description: Growth inhibiting activity of Naegleria gruberi in vitro

| Structure (SMILES) | inhibition at 10 µM |
| --- | --- |
| CN1CCN(S(=O)(=O)c2ccc(-c3ccc4c(Nc5ccc6nn[nH]c6c5)ccnc4c3)cc2)CC1 | 10.8% (not active) |
| CN1CCN(S(=O)(=O)c2ccc(-c3ccc4c(Nc5ncc(Cl)cn5)ccnc4c3)cc2)CC1 | 43.6% (not active) |
| COC(=O)c1cccc2oc(-c3cccc(OC)c3NC(=O)c3cc(-c4ccccc4)on3)nc12 | 69.8% (not active) |
| O=C1Nc2ccc(Br)cc2C12NCCc1c2[nH]c2ccccc12 (stereo not drawn) | 33.5% (not active) |
| CS(=O)(=O)N1CCC(CCn2nc(Cc3cccc4ccccc34)c3c(N)ncnc32)CC1 | 26.2% (not active) |
| CC1(C)OB(O)c2ccc(C3=NOC(c4cc(Cl)c(F)c(Cl)c4)(C(F)(F)F)C3)cc21 (stereo not drawn) | 62.5% (not active) |
| C[C@]1(COc2ccc(N3CCC(Oc4ccc(OC(F)(F)F)cc4)CC3)cc2)Cn2cc([N+](=O)[O-])nc2O1 | 94.1% (active) |
| Cc1cccc(NC(=O)c2cc(S(=O)(=O)N(C)c3ccc(F)cc3)ccc2Cl)n1 | 42.3% (not active) |
| COc1ccc(Cl)cc1NC(=O)CN(C)C(=O)c1cnn(-c2ccccc2)n1 | 37.1% (not active) |
| Cc1cc(C)n2nc(C(=O)Nc3cc(C(F)(F)F)ccc3N3CCOCC3)nc2n1 | 38% (not active) |
| O=C(Cn1ccnc1[N+](=O)[O-])NCc1ccccc1 [BENZNIDAZOLE] | 37.4% (not active) |
| Cc1[nH]c2cc(F)cc(F)c2c(=O)c1-c1ccc(Oc2ccc(OC(F)(F)F)cc2)cc1 | 11.3% (not active) |
| Cc1cc2nc(NC(=O)C(C)(C)C)nc(Cl)c2n1Cc1ccc(Cl)cc1 | 43% (not active) |
| O=C(COc1cccc(F)c1)Nc1nc(-c2ccccn2)cs1 | 24.2% (not active) |
| CC(C)(C)c1cc(C(=O)Nc2cccnc2)cc(C(=O)Nc2cccnc2)c1 | 28% (not active) |
| CC(C)(C)c1ccc(N[C@@H]2CCCC[C@H]2NC(=O)c2ccco2)cc1 | 8.8% (not active) |
| Cc1noc(C)c1COc1cccc(C(=O)N=c2[nH]cccc2C)c1 | 36.7% (not active) |
| Cc1ccc2nc(C)c(-c3ccn(Cc4ccccc4)n3)n2c1 | 9.5% (not active) |
| O=C(NC1CC1)c1ccc(N2CCC(Cc3ccccc3)CC2)nc1 | 59.1% (not active) |
| CC1COC2(CCN(c3nc(=O)c4cc(C(F)(F)F)cc([N+](=O)[O-])c4s3)CC2)O1 (stereo not drawn) | 38.4% (not active) |
| COc1ccccc1C(C)NCC(=O)Nc1cc(C(F)(F)F)ccc1Cl (stereo not drawn) | 49.5% (not active) |
| Cc1ccc2[nH]c3c(NCCN(C)C)ncnc3c2c1 | 23.7% (not active) |

| Structure (SMILES) | inhibition at 10 µM |
| --- | --- |
| CC(C)c1ncc(-c2ccncc2)c([C@H]2CC[C@H](CNC(=O)c3cccnc3)CC2)n1 | 32.5% (not active) |
| NCCC(O)C(=O)N[C@@H]1C[C@H](N)[C@@H](OC2O[C@H](CN)[C@@H](O)[C@H](O)[C@H]2O)[C@H](O)C1OC1O[C@H](CO)[C@@H](O)[C@H](N)[C@H]1O (stereo partly drawn) | 0% (not active) |
| CC(C(=O)N1CCCC1)N1CCN(S(=O)(=O)c2ccc(C(C)(C)C)cc2)CC1 (stereo not drawn) | 4.7% (not active) |
| COc1cc(CN2CCC3(C=Cc4ccccc43)CC2)cc2c1OCO2 | 38.6% (not active) |
| Cc1cc(C)cc(COc2ccc3c(C)c(CCC(=O)O)c(=O)oc3c2C)c1 | 40.9% (not active) |
| CCOC(=O)c1noc(N)c1-c1ccccc1 | 0% (not active) |
| Nc1nc(N)c2c3c(sc2n1)CN(Cc1ccccc1)CC3 | 2.1% (not active) |
| Cc1nnc(NCc2cccc(Cl)c2)c2ccccc12 | 38.4% (not active) |
| CC(C)(C(=O)Nc1ccc(F)cc1)n1cc(-c2ccccc2F)cn1 | 30.2% (not active) |
| Cc1cc2ccccc2n1CC(=O)N1CC(C(=O)N2CCCCC2)Oc2ccccc21 (stereo not drawn) | 52.5% (not active) |
| O=C(Nc1cccc(-c2ccc(NCCCN3CCCC3)nc2)c1)c1ccccc1 | 8.2% (not active) |
| CN1CCC(c2cc(-c3ccncc3)c(-c3ccc(F)cc3)[nH]2)CC1 | 0% (not active) |
| Nc1ccc(C(=O)Nc2ccc(-c3nc4ccccc4o3)cc2)cc1 | 6.1% (not active) |
| O=S(=O)(c1ccc(Cl)cc1)N1CCN(C(=S)NCc2ccco2)CC1 | 38% (not active) |
| Cc1ccc2c(c1C)NC(=O)C21NN=C(c2ccccc2)S1 (stereo not drawn) | 20.7% (not active) |
| CCOC(=O)c1c(NC(=O)c2c(F)c(F)c(F)c(F)c2F)sc(C(N)=O)c1C | 5.8% (not active) |
| CC1CCCN(C(=O)C(C)Nc2cc(Cl)ccc2N2CCOCC2)C1 (stereo not drawn) | 43.8% (not active) |
| CO[C@@H]1CN(c2ccc(C#CC3(O)CN4CCC3CC4)c(Cc3ccccc3)n2)C[C@H]1O (stereo partly drawn) | 0% (not active) |
| Cc1ccc(-c2cc(C(=O)Nc3cccnc3)c3cc(Br)ccc3n2)cc1 | 16.8% (not active) |
| COc1cccn2c(C(=O)N3CCCCC3)c(C(F)(F)F)nc12 | 17% (not active) |
| CO/C=C(/C(=O)OC)c1ccccc1Oc1cc(Oc2ccccc2C#N)ncn1 [AZOXYSTROBIN] | 33.7% (not active) |
| COc1cccc(OCC(=O)c2ccc(Br)cc2)c1 | 33.4% (not active) |

| Structure (SMILES) | inhibition at 10 µM |
| --- | --- |
| Cc1ncc(-c2ccnc(Nc3ccc(S(C)(=O)=O)cc3)n2)n1C(C)C [AZD-5438] | 47.7% (not active) |
| Nc1nccc2ccc(-c3ccc4nccn4c3)cc12 | 8.2% (not active) |
| CCOc1ccc(-c2nc(CNCCc3ccc(F)cc3)cs2)cc1 | 42.4% (not active) |
| CCCS(=O)(=O)N1CCC(CO)(Cc2ccccc2C(F)(F)F)CC1 | 19% (not active) |
| CCCc1ccc(S(=O)(=O)Nc2ccc(CN3CCN(CC4CC4)CC3)cc2)cc1 | 30.3% (not active) |
| COc1ccc(C2=NN(C3CCCCCC3)C(=O)C2(C)C)cc1OCCCCOc1ccc(-c2nn[nH]n2)cc1 | 36.8% (not active) |
| Cc1ccc2cc(C3NC(=O)c4ccccc4N3)c(Cl)nc2c1 (stereo not drawn) | 46.1% (not active) |
| Cc1cc(NC(=O)c2ccc(Oc3ccc(Cl)cc3O)o2)no1 | 0% (not active) |
| CCCCc1ccc(C(=O)Nc2nccc3ccccc23)nc1 | 43.2% (not active) |
| O=C(C(Cc1c[nH]c2ccccc12)NS(=O)(=O)c1ccc(Cl)cc1)N1CCCCC1 (stereo not drawn) | 23.3% (not active) |
| N#Cc1ccc(-c2cnc(N)c(-c3ccc(C(N)=O)cc3)n2)cc1 | 21.8% (not active) |
| COc1ccc(-c2nnc3ccc(-c4cccc(C(C)C)c4)cn23)cc1OC | 26.7% (not active) |
| Clc1ccc(-n2cc(COc3ccnc4ccccc34)nn2)cc1 | 75.2% (not active) |
| Nc1cccnc1Nc1ccc(Cl)cc1 | 4.1% (not active) |
| O=C(NCCN1CCCC1)c1cc(NCCCCN2CCC(F)(F)CC2)nc2ccc(Cl)cc12 | 4.3% (not active) |
| Brc1c(-c2ccc3c(c2)OCO3)nc2ncccn12 | 39.1% (not active) |
| C[C@H](C(N)=O)N1CCCC[C@H]1c1ccc(OCc2cccc(F)c2)cc1 | 15.8% (not active) |
| CC[C@H](CO)NCCN[C@H](CC)CO | 26.7% (not active) |
| Cc1ccc(NC(=O)c2nc[nH]c2C(=O)Nc2nc3ccccc3[nH]2)c(C)c1 | 22.8% (not active) |
| Cc1cc(NCCc2ccccc2)nc(NC(=N)Nc2ccc(Cl)cc2)n1 | 19.6% (not active) |
| CC1=Nc2ccc(Cl)cc2C(O)(c2ccc(C)cc2)N1CCN1CCCCC1 (stereo not drawn) | 31.1% (not active) |
| CC(C)(C)n1nc(Cc2ccc(F)c(Cl)c2)c2c(N)ncnc21 | 32% (not active) |

| Structure (SMILES) | inhibition at 10 µM |
| --- | --- |
| CNCCC(Oc1ccc(C(F)(F)F)cc1)c1ccccc1 (stereo not drawn) [FLUOXETINE] | 7.5% (not active) |
| c1ccc(-c2nc(NC3CCCCC3)cc(C3CC3)n2)nc1 | 23.7% (not active) |
| COc1ccc(-c2cnc3ccc(NCc4ccc(S(N)(=O)=O)cc4)nn23)cn1 | 10.2% (not active) |
| c1ccc(Oc2ccc(-c3cc(CN4CCOCC4)[nH]n3)cc2)cc1 | 3.2% (not active) |
| CN1CCN(CCCOc2ncc(Nc3ncc(-c4ccc(C(F)(F)F)c(F)c4)nc3C(N)=O)cn2)CC1 | 12.9% (not active) |
| O=C(N[C@H](Cc1ccccc1)C(=O)Nc1ccccc1N1CCOCC1)c1cccs1 | 29.6% (not active) |
| Cc1cc(C)c2cc(C(=O)NC3CCCCCCC3)[nH]c2c1 | 30.2% (not active) |
| O=C1COCc2ccc(Br)cc2N1Cc1ccc(C(F)(F)F)cc1 | 26.7% (not active) |
| CCc1c(C)nc(-n2nc(C)cc2NC(=O)c2ccccc2SC)[nH]c1=O | 17.4% (not active) |
| Cc1nc(-c2ccccn2)nc(N(C)CCc2ccccc2)c1Cl | 21.1% (not active) |
| CCN(CC)S(=O)(=O)c1ccc(C(=O)Nc2cc(C)nn2-c2nc(C)c(C)c(=O)[nH]2)cc1 | 41.8% (not active) |
| CCc1cc(=O)n(C)c(SC(C)C(=O)Nc2ccc(F)cc2)n1 (stereo not drawn) | 10.4% (not active) |
| CCN(CC)CCCN1CCN(C(=O)c2cccc(-c3noc(C(F)(F)F)n3)c2)CC1 | 13% (not active) |
| O=C(Nc1ccnc(-c2cccnc2)n1)c1cc(C(F)(F)F)cc(C(F)(F)F)c1 | 44.3% (not active) |
| O=C(Nc1nnc(-c2ccc(Cl)cc2)o1)c1cccc(C(F)(F)F)c1 | 19.7% (not active) |
| NCCN(C(=O)c1ccc(Cl)cc1Cl)c1ccc(OCc2ccc(Cl)cc2)cc1 | 29.6% (not active) |
| CS(=O)(=O)Cc1nc2ccccc2oc1=O | 38.8% (not active) |
| NS(=O)(=O)c1cccc(-c2ccc3ncc(N4CCOCC4)nc3c2)c1 | 26% (not active) |
| CC(C)C(Oc1cccc2ccccc12)C(=O)O (stereo not drawn) | 1.3% (not active) |
| CC[C@@H]([C@H](C)O)n1ncn(-c2ccc(N3CCN(c4ccc(OC[C@@H]5CO[C@@](Cn6cncn6)(c6ccc(F)cc6F)C5)cc4)CC3)cc2)c1=O [POSACONAZOLE] | 84.8% (active) |
| c1ccc(-c2[nH]c3ccccc3c2C(c2ccccn2)N2CCCC2)cc1 (stereo not drawn) | 32.7% (not active) |
| O=C(NCc1ccco1)N1CCN(Cc2ccc(Cl)s2)CC1 | 39.6% (not active) |
